Measured values as given in US20230028658A1, “EXPANDED DOSAGE REGIMENS FOR INTEGRIN INHIBITORS” (Pliant Therapeutics, Inc., priority 2021, published 2023).
Where two headings read alike, the source gives them in different places.

What was measured:
[1] = tested on: COL1A1; assay: COL1A1 expression in precision cut lung slices (PCLS) from human IPF lung tissue (FIG. 6E); format: cell-based; details: concentrations ranging from 200 pM to 1 μM, versus 0.1% DMSO control
Description: FIG. 6D is a bar graph showing relative expression of COL1A1 in precision cut lung slices (PCLS) from idiopathic pulmonary fibrosis (IPF) lung tissue upon exposure to Compound 5, clinical standard of care compounds nintedanib (Nin) and pirfenidone (Pirf), and an ALK5 inhibitor, all versus DMSO control.
COL1A1 expression is also graphed for the PCLS in the presence of 0.1% DMSO control, and an Alk5 inhibitor at 1 μM.

[2] = tested on: lung Col1a1 expression; assay: Precision cut lung slices of mice under chronic bleomycin exposure, Col1a1 expression (Example B9); format: cell-based, Mice (C57BL/6); details: chronic bleomycin PCLS, 7 days culture, normalized to DMSO; FIG. 5B
Description: Mice (C57BL/6) were administered 3 U/kg of bleomycin (Teva Pharmaceuticals; North Wales, Pa.) on Day 0 and 1 U/kg of bleomycin on days 14, 28, 42 and 56 via oropharyngeal aspiration while under anesthesia. At day 70, 14 days after the final bleomycin insult, precision cut lung slices were obtained. Following euthanization, 2% low gelling temp agarose was injected into the mouse lungs via the trachea. […] The lobes were then subjected to precision slicing to obtain samples for culture using a microtome (Compresstome VF-300-0Z, Precisionary; Greenville, N.C.). Individual slices were distributed in a multiwell culture plate and cultured for 7 days under control (DMSO) and test compound conditions. The viability of the slices over the course of culturing was confirmed by WST-1 assay of mitochondrial activity.
During the culture period, slices in the control group were treated with DMSO and slices in the test group were treated with a DMSO solution of one of: the selective antibody αvβ6 inhibitor 3G9; the αvβ1-selective small molecule inhibitor; a combination of the selective antibody αvβ6 inhibitor 3G9 and the αvβ1-selective small molecule inhibitor; compound 5; and the small molecule ALK5 inhibitor. The selective αvβ1 and αvβ6 integrin inhibitors were analyzed at ≥their respective IC90 concentrations for inhibition of TGF-beta activation. […]

[3] = Binding to plasma proteins, equilibrium dialysis; format: in vitro ADME; details: human, plasma of dosed study participants, oral, participants' plasma Day 7
Description: Binding to plasma proteins was determined in participants' plasma (Day 7) using a qualified equilibrium dialysis protocol. The mean % unbound was 0.292%±0.067%, and ranged from 0.182% to 0.38% across the 20-mg cohort participants. The mean % unbound was 0.318%+0.065% and ranged from 0.22% to 0.376% across the 40-mg cohort participants. Due to the unexpected amount of plasma protein binding in these participants, it was decided to examine higher doses of the dual […] inhibitor (Compound 5) to determine whether such higher doses would compensate for the high protein binding and provide greater amounts of free drug.

[4] = Multiple dose pharmacokinetics (MAD), Example B14; format: in vivo; details: human, plasma, oral; for AUC(0-t): read-out: AUC0−24, ng × h/mL; for Tmax: median
From the text: Accordingly, a study was designed to assess the PK of Compound 5 after a single dose and following a 6-day course of doses, at levels exceeding the dosages used in preceding Examples B12 and B13. This study was designed to assess at these higher doses aspects of the single-dose and steady-state pharmacokinetics of Compound 5.
This study was a single-center, randomized, double-blind, ascending dose, placebo-controlled study in healthy participants. Each cohort included 10 participants (8 active, 2 placebo). Study participants received single ascending doses (SAD) of Compound 5 of 120, 160, 240, 320, 480, and 640 mg and multiple ascending doses (MAD) of Compound 5 of 80, 120, 160, 240, and 320 mg. Two cohorts of participants at 160 mg were studied in the MAD phase of the study.
Participants received 7 daily doses of Compound 5 80, 120, 160, 240, and 320 mg. A total of 60 participants were enrolled across the dosing groups, with 48 participants who received Compound 5 available for PK analyses. One participant discontinued study drug prior to completing all study procedures. […] Despite the substantially higher dosages, the PK parameters in the dosing groups were consistent with those observed at lower doses in Example B12. Following multiple doses of Compound 5 (oral solution) ranging from 80 to 320 mg QD, median plasma Compound 5 concentrations reached maximum levels after 3 to 4 hours. Geometric mean T1/2 remained relatively unchanged with increasing dose, ranging from 36 to 55 hours.

[5] = tested on: pSMAD2/SMAD2; assay: pSMAD2/SMAD2 in BALF cells of healthy participants, Example B15 Part 1; format: in vivo, human; details: preliminary analysis
From the text: The primary objective of this study was to assess the pharmacodynamic changes in biomarkers of TGF-β activation in alveolar macrophages from bronchoalveolar lavage fluid (BALF) following dosing of Compound 5 for 7 days. Secondary objectives of this study were to assess the safety and tolerability of Compound 5 following dosing for 7 days, the plasma PK of Compound 5, and the PK/PD (BALF biomarkers) relationship.
This study was designed as a randomized, double-blind, placebo-controlled study in 48 healthy participants conducted in 2 parts. Part 1 has completed clinical conduct, and Part 2 is ongoing. In Part 1, 24 participants were randomized 1:1:1 to receive Compound 5 80 mg QD, Compound 5 160 mg QD, or placebo QD. A safety review committee reviewed the safety and PK data from Part 1 and recommended doses for Part 2. In Part 2, 24 participants were randomized 1:1:1 to receive Compound 5 320 mg QD (Compound 5 in the morning and matched placebo in the afternoon), Compound 5 160 mg twice daily (BID), or placebo BID. In both parts, samples of BALF were collected from the middle lobe or lingula via bronchoscopy prior to dosing (Day −1) and at 6 and 24 hours post morning dose on Day 7. BALF samples were assessed for TGF-β receptor kinase activity (pSMAD2/SMAD2) in pelleted cells (primarily alveolar macrophages) and additional cell material was used to measure TGF-β signaling pathway-related gene expression levels. Plasma samples were collected to measure Compound 5 concentrations and determine protein binding. Safety was monitored via open-ended AE inquiry and clinical chemistry, hematology, vital sign, and 12-lead ECG parameters.

[6] = 80 mg daily, Day 7, geometric mean
[7] = 120 mg daily, Day 7, geometric mean
[8] = 160 mg daily, Day 7, two cohorts pooled, geometric mean
[9] = 240 mg daily, Day 7, geometric mean
[10] = 320 mg daily, Day 7, geometric mean

- fraction unbound ([3]; 20 mg, 20-mg cohort, read-out: % unbound, range across participants): 0.00182 to 0.0038
- fraction unbound ([3]; 20 mg, 20-mg cohort, read-out: mean % unbound): 0.00292
- fraction unbound ([3]; 40 mg, 40-mg cohort, read-out: % unbound, range across participants): 0.0022 to 0.00376
- fraction unbound ([3]; 40 mg, 40-mg cohort, read-out: mean % unbound): 0.00318
- Cmax [4, 6]: 1850 ng/mL
- AUC(0-t) [4, 6]: 19200 ng·h/mL
- half-life ([4]; 80 mg daily, Day 7, geometric mean, read-out: T1/2 (converted)): 36.1 h
- Tmax ([4]; 80 mg daily, Day 7): 3.5 h
- Cmax [4, 7]: 4040 ng/mL
- AUC(0-t) [4, 7]: 49400 ng·h/mL
- half-life ([4]; 120 mg daily, Day 7, geometric mean, read-out: T1/2 (converted)): 55.4 h
- Tmax ([4]; 120 mg daily, Day 7): 4.03 h
- Cmax [4, 8]: 3790 ng/mL
- AUC(0-t) [4, 8]: 49400 ng·h/mL
- half-life ([4]; 160 mg daily, Day 7, two cohorts pooled, geometric mean, read-out: T1/2 (converted)): 41.7 h
- Tmax ([4]; 160 mg daily, Day 7, two cohorts pooled): 3 h
- Cmax [4, 9]: 5140 ng/mL
- AUC(0-t) [4, 9]: 63000 ng·h/mL
- half-life ([4]; 240 mg daily, Day 7, geometric mean, read-out: T1/2 (converted)): 50.5 h
- Tmax ([4]; 240 mg daily, Day 7): 3 h
- Cmax [4, 10]: 5730 ng/mL
- AUC(0-t) [4, 10]: 74500 ng·h/mL
- half-life ([4]; 320 mg daily, Day 7, geometric mean, read-out: T1/2 (converted)): 46 h
- Tmax ([4]; 320 mg daily, Day 7): 3.56 h
- half-life ([4]; multiple doses 80 to 320 mg QD, read-out: Geometric mean T1/2): 36 to 55 h
SMILES: COCCN(CCCCc1ccc2c(n1)NCCC2)CC[C@H](Nc1ncnc2ccccc12)C(=O)O [Compound 5, (S)-4-((2-methoxyethyl) (4-(5,6,7,8-tetrahydro-1,8-naphthyridin-2-yl)butyl)amino)-2-(quinazolin-4-ylamino) butanoic acid]
- COL1A1 expression in PCLS from human IPF lung tissue [1]: dose dependent reduction
- lung Col1a1 expression [2]: decreased lung Col1a1 expression substantially
- reduction in pSMAD2 levels (pSMAD2/SMAD2 ratio) ([5]; 80 mg QD 7 days, 6 hours post dose Day 7): 41.2%
- reduction in pSMAD2 levels (pSMAD2/SMAD2 ratio) ([5]; 80 mg QD 7 days, 24 hours post dose Day 7): 36.6%
- reduction in pSMAD2 levels (pSMAD2/SMAD2 ratio) ([5]; 160 mg QD 7 days, 6 hours post dose Day 7): 57.8%
- reduction in pSMAD2 levels (pSMAD2/SMAD2 ratio) ([5]; 160 mg QD 7 days, 24 hours post dose Day 7): 53.2%
